Measured values: ChEMBL document CHEMBL3352684, “Discovery of MK-3697: a selective orexin 2 receptor antagonist (2-SORA) for the treatment of insomnia” (Bioorg Med Chem Lett, 2014)
Calls of active or inactive are those of the source. No cut-off for these calls is given here.

Columns and labels:
Rattus norvegicus [1] = organism: Rattus norvegicus; experiment: Ex vivo receptor occupancy at human OX2R expressed in transgenic rat at CSF concentration of 40 nM; assay type: functional
Orexin receptor type 2 [2] = target: T1, Orexin receptor type 2 (Homo sapiens, UniProt O43614); experiment: Displacement of (S)-N-(2-(1H-pyrrol-1-yl)phenyl)-1-(2-([3H]-1-methyl-1H-benzo[d]imidazol-2-ylthio)acetyl)pyrrolidine-2-carboxamide from human OX2R expressed in CHO cells after 3 hrs by topcount analysis; assay type: cell-based
T1 sequence (O43614 whole entry): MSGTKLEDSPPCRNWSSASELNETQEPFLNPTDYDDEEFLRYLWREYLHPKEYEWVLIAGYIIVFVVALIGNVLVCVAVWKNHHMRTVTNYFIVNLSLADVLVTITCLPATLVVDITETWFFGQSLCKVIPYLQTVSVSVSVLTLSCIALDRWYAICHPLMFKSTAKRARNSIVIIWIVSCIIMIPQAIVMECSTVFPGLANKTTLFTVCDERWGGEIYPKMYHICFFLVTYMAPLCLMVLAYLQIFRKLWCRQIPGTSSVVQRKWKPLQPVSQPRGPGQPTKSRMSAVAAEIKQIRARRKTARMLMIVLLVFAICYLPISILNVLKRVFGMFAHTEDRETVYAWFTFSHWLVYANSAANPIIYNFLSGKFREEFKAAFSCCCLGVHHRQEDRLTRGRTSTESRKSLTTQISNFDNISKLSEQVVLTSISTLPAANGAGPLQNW

Orexin receptor type 2 [3] = target: T1, Orexin receptor type 2; experiment: Antagonist activity at human OX2R expressed in CHO cells assessed as inhibition of Ala-6,12-orexinA-induced effect after 5 mins by FLIPR assay; assay type: cell-based
[4] = Clearance in dog at 1 mg/kg, iv; assay type: ADME, organism-based, Canis lupus familiaris; set-up: dose 1 mg/kg, route intravenous; conditions: in vivo
[5] = Volume of distribution at steady state in dog at 1 mg/kg, iv; assay type: ADME, organism-based, Canis lupus familiaris; set-up: dose 1 mg/kg, route intravenous; conditions: in vivo, read-out: Vdss
[6] = Half life in dog at 1 mg/kg, iv; assay type: ADME, organism-based, Canis lupus familiaris; set-up: dose 1 mg/kg, route intravenous; conditions: in vivo
[7] = AUC (0 to infinity) in dog at 3 mg/kg, po; assay type: ADME, organism-based, Canis lupus familiaris; set-up: time infinity, dose 3 mg/kg, route oral; conditions: plasma
[8] = Cmax in rat at dog at 3 mg/kg, po; assay type: ADME, organism-based, Canis lupus familiaris; set-up: dose 3 mg/kg, route oral; conditions: in vivo
[9] = Tmax in rat at dog at 3 mg/kg, po; assay type: ADME, organism-based, Canis lupus familiaris; set-up: dose 3 mg/kg, route oral; conditions: in vivo
Mus musculus [10] = experiment: Increase in slow wave sleep in mouse at 100 mg/kg, po after 2 hrs; assay type: functional, organism-based; set-up: dose 100 mg/kg
Mus musculus [11] = experiment: Increase in rapid eye movement sleep in mouse at 100 mg/kg, po after 2 hrs; assay type: functional, organism-based; set-up: dose 100 mg/kg
Rattus norvegicus [12] = experiment: Increase in slow wave sleep in Sprague-Dawley rat at 15 mg/kg, po after 2 hrs; assay type: functional, organism-based; set-up: dose 15 mg/kg
Rattus norvegicus [13] = experiment: Increase in rapid eye movement sleep in Sprague-Dawley rat at 15 mg/kg, po after 2 hrs; assay type: functional, organism-based; set-up: dose 15 mg/kg
Mus musculus [14] = experiment: Reduction in active wake sleep in OX2R-knockout mouse at 100 mg/kg, po after 2 hrs; assay type: functional, organism-based; set-up: dose 100 mg/kg
Mus musculus [15] = experiment: Increase in rapid eye movement sleep in OX2R-knockout mouse at 100 mg/kg, po after 2 hrs; assay type: functional, organism-based; set-up: dose 100 mg/kg
Canis familiaris = experiment: Reduction in active wake sleep in dog at 3 mg/kg, po after 2 hrs; assay type: functional, organism-based; set-up: dose 3 mg/kg; conditions: Canis lupus familiaris
[16] = Cmax in mouse at 100 mg/kg, po; assay type: ADME, organism-based; set-up: dose 100 mg/kg, route oral; conditions: in vivo
[17] = target: T2, Orexin/Hypocretin receptor type 1 (Mus musculus) (UniProt P58307); experiment: Antagonist activity at mouse OX1R by FLIPR assay
T2 sequence (whole entry): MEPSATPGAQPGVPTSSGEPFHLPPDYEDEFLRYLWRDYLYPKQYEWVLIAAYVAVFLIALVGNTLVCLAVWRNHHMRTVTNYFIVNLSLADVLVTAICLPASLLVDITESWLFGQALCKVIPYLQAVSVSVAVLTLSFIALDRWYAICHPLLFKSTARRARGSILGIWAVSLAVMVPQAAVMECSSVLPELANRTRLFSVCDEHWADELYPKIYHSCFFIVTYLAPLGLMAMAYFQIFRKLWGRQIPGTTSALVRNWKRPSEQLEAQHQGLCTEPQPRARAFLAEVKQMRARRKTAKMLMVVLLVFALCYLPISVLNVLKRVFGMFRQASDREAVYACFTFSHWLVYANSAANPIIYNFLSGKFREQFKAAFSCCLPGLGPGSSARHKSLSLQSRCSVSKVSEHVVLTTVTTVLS

[18] = AUC in Sprague-Dawley rat at 15 mg/kg, po; assay type: ADME, organism-based; set-up: dose 15 mg/kg, route oral; conditions: plasma
[19] = Drug uptake in Sprague-Dawley rat CSF at 15 mg/kg, po; assay type: ADME, organism-based, Cerebrospinal fluid; set-up: dose 15 mg/kg, route oral; conditions: in vivo, read-out: Drug uptake
[20] = target: T3, Orexin receptor type 2 (Rattus norvegicus) (UniProt P56719); experiment: Antagonist activity at Sprague-Dawley rat OX2R by FLIPR assay
T3 sequence (whole entry): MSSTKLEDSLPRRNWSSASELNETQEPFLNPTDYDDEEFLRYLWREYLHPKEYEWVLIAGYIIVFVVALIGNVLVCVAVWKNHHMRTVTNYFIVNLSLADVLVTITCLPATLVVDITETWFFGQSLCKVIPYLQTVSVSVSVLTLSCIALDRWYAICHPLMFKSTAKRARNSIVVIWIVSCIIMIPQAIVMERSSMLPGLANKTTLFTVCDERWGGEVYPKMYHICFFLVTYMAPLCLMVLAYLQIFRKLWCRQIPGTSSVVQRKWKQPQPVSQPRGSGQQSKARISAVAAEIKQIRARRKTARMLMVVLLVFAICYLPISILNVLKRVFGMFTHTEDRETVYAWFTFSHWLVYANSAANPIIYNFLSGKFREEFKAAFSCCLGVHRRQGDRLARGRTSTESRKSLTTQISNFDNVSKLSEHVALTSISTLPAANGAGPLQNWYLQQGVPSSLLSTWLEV

[21] = AUC in dog at 3 mg/kg, po; assay type: ADME, organism-based, Canis lupus familiaris; set-up: dose 3 mg/kg, route oral; conditions: plasma
[22] = Plasma protein binding in dog; assay type: ADME, cell-free, Canis lupus familiaris; conditions: read-out: PPB (converted)
Canis lupus familiaris = organism: Canis lupus familiaris; experiment: Antagonist activity at dog OX1R by FLIPR assay
Rattus norvegicus [23] = organism: Rattus norvegicus; experiment: Ex vivo receptor occupancy at human OX2R expressed in transgenic rat at plasma concentration of 1.06 uM; assay type: functional

Ki (Orexin receptor type 2 [2]): 1.1 nM
IC50 (Orexin receptor type 2 [3]): 16 nM
clearance [4]: 7.2 mL/min/kg
Vd [5]: 0.7 L/kg
half-life [6]: 72 min
AUC(0-inf) [7]: 7.5 µM·h
Cmax [8]: 2100 nM
Tmax [9]: 42 min
Cmax [16]: 55300 nM
INH [17]: 27.2 µM
AUC [18]: 17.2 µM·h
concentration [19]: 900 nM
INH [20]: 31 nM
AUC [21]: 9 µM·h
fraction unbound [22]: 0.169
INH (Canis lupus familiaris): 10 µM
Structure (SMILES): COc1ccc(CNC(=O)c2cc(-c3cncc(C)c3)ncc2-c2nccs2)nc1OC
Occ (Rattus norvegicus [1]): 90%
Activity (Mus musculus [10]): Active
Activity (Mus musculus [11]): Active
Activity (Rattus norvegicus [12]): Active
Activity (Rattus norvegicus [13]): Active
Activity (Mus musculus [14]): inactive
Activity (Mus musculus [15]): inactive
Activity (Canis familiaris): Active
Occ (Rattus norvegicus [23]): 90%
